Values quoted from earlier work as cited in US10058529B2, “Nutraceutical composition for PDE4 inhibition, enhanced dopamine metabolism and long term potentiation” (priority 2013, dated 2018).

Experiments:
acetylcholine = details: in vivo
[1] = tested on: phosphodiesterase enzymes (PDE 1 through 5)
[2] = co-administered piperine
PDE4 = details: reference 38
[3] = low doses

In the case of CC(=O)O[C@H](CC(=O)[O-])C[N+](C)(C)C [Acetyl-L-carnitine, acetyl-L-carnitine], the “levels of acetylcholine in the brain” value (acetylcholine) is listed as “increase”.

For O=c1cc(-c2ccc(O)c(O)c2)oc2cc(O)cc(O)c12 [Luteolin, luteolin], the “inhibition of phosphodiesterase enzymes (PDE 1 through 5)” value [1] is listed as “can inhibit”.

In the case of O=C(/C=C/C=C/c1ccc2c(c1)OCO2)N1CCCCC1 [Piperine, piperine], the bioavailability of resveratrol [2] is given as “enhance the bioavailability”.

For COc1ccc([C@@]23C=CC(=O)C[C@@H]2N(C)CC3)cc1OC [mesembrenone], the PDE4 inhibition (PDE4) is given as “significantly inhibit”.

In the case of COc1ccc(C2CNC(=O)C2)cc1OC1CCCC1 (centres unmarked) [rolipram], the side effect [3] is given as “emesis (vomiting) at low doses”.
